Test system: autologous targets
Experiment: CTL assay (chromium release)
Assay type: cell-based
Settings: two in vitro re-stimulations, IL-2 added

DW2: amino acids 391-399 of the HER-2 protein, T cell epitope (PLQPEQLQV; UniProt P04626 391-399, looked up, fragment)
CTL lysis of targets: able to specifically lyse autologous targets in a dose dependent manner

— patent publication US8110657B2, “Polypeptides and polynucleotides for enhancing immune reactivity to HER-2 protein” (priority 1999, dated 2012)
